Test results taken from patent publication US11306087B2, “Inhibitors of KRAS G12C and methods of using the same” (Amgen Inc., priority 2017, dated 2022).

Assays:
[1] = biological target: GDP-bound KRAS protein (aa 1-169), containing both G12C and C118A amino acid substitutions (Homo sapiens (Human), UniProt P01116, C118A/G12C); assay: Coupled Nucleotide Exchange Assay; type: biochemical; conditions: 5 min compound pre-incubation; inhibition of SOS-mediated nucleotide exchange; AlphaScreen
Description: For compounds in Table 2, the following assay conditions were employed: Coupled Nucleotide Exchange Assay: Purified GDP-bound KRAS protein (aa 1-169), containing both G12C and C118A amino acid substitutions and an N-terminal His-tag, was pre-incubated with a compound dose-response titration for 5 min in assay buffer (25 mM HEPES pH 7.4, 10 mM MgCl2, and 0.01% Triton X-100). Following compound pre-incubation, purified SOS protein (aa 564-1049) and GTP (Roche 10106399001) were added to the assay wells and incubated for an additional 30 min. To determine the extent of inhibition of SOS-mediated nucleotide exchange, purified GST-tagged cRAF (aa 1-149), nickel chelate AlphaLISA acceptor beads (PerkinElmer AL108R), and AlphaScreen glutathione donor beads (PerkinElmer 6765302) were added to the assay wells and incubated for 5 minutes. The assay plates were then read on a PerkinElmer EnVision Multilabel Reader, using AlphaScreen® technology, and data were analyzed using a 4-parameter logistic model to calculate IC50 values.

[2] = tested on: Phosphorylation of ERK1/2 in MIA PaCa-2 cells; assay: Phospho-ERK1/2 MSD Assay; type: cell-based; conditions: Homo sapiens, 2 hours compound treatment, 10 ng/mL EGF for 10 min, read-out: p-ERK IC50 (MIA PaCa-2)
Description: Phospho-ERK1/2 MSD Assay: MIA PaCa-2 (ATCC® CRL-1420™) and A549 (ATCC® CCL-185™) cells were cultured in RPMI 1640 Medium (ThermoFisher Scientific 11875093) containing 10% fetal bovine serum (ThermoFisher Scientific 16000044) and 1× penicillin-streptomycin-glutamine (ThermoFisher Scientific 10378016). Sixteen hours prior to compound treatment, MIA PaCa-2 or A549 cells were seeded in 96-well cell culture plates at a density of 25,000 cells/well and incubated at 37° C., 5% CO2. A compound dose-response titration was diluted in growth media, added to appropriate wells of a cell culture plate, and then incubated at 37° C., 5% CO2 for 2 hours. Following compound treatment, cells were stimulated with 10 ng/mL EGF (Roche 11376454001) for 10 min, washed with ice-cold Dulbecco's phosphate-buffered saline, no Ca^2+ or Mg^2+ (ThermoFisher Scientific 14190144), and then lysed in RIPA buffer (50 mM Tris-HCl pH 7.5, 1% Igepal, 0.5% sodium deoxycholate, 150 mM NaCl, and 0.5% sodium dodecyl sulfate) containing protease inhibitors (Roche 4693132001) and phosphatase inhibitors (Roche 4906837001). Phosphorylation of ERK1/2 in compound-treated lysates was assayed using Phospho-ERK1/2 Whole Cell Lysate kits (Meso Scale Discovery K151DWD) according to the manufacturer's protocol. Assay plates were read on a Meso Scale Discovery Sector Imager 6000, and data were analyzed using a 4-parameter logistic model to calculate IC50 values.

GDP-bound KRAS protein (aa 1-169), containing both G12C and C118A amino acid substitutions, sequence (P01116 other isoform, or with tags, fused parts or gaps G12C/C118A): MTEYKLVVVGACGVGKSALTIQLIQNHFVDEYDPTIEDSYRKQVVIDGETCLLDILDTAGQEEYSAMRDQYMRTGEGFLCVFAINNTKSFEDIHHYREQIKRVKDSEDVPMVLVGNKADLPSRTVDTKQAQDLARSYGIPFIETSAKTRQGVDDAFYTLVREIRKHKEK

Structure (SMILES)	IC50 [1] [nM]	IC50 [2] [nM]
C=CC(=O)N1[C@H](C)CN(c2nc(=O)n(-c3c(C(C)C)ncnc3C(C)C)c3nc(-c4c(O)cccc4F)c(F)cc23)C[C@@H]1C [Example 23, 4-(4-Acryloyl-cis-3,5-dimethylpiperazin-1-yl)-1-(4,6-diisopropylpyrimidin-5-yl)-6-fluoro-7-(2-fluoro-6-hydroxyphenyl)pyrido[2,3-d]pyrimidin-2(1H)-one]	173	132
C=CC(=O)N1C[C@H](C)N(c2nc(=O)n(-c3c(C)ccnc3C(C)C)c3nc(-c4c(N)cccc4F)c(Cl)cc23)C[C@H]1C [Example 3, 4-((2S,5R,M)-4-Acryloyl-2,5-dimethylpiperazin-1-yl)-7-(2-amino-6-fluorophenyl)-6-chloro-1-(2-isopropyl-4-methylpyridin-3-yl)pyrido[2,3-d]pyrimidin-2(1H)-one]	13	9
C=CC(=O)N1[C@H](C)CN(c2nc(=O)n(-c3c(C(C)C)ncnc3C(C)C)c3nc(-c4ccccc4F)c(F)cc23)C[C@@H]1C [Example 22, 4-(4-Acryloyl-cis-3,5-dimethylpiperazin-1-yl)-1-(4,6-diisopropylpyrimidin-5-yl)-6-fluoro-7-(2-fluorophenyl)pyrido[2,3-d]pyrimidin-2(1H)-one]	560	
C=CC(=O)N1[C@H](C)CN(c2nc(=O)n(-c3c(C(C)C)ncnc3C(C)C)c3nc(-c4ccccc4F)c(Cl)cc23)C[C@@H]1C [Example 19, 4-(4-Acryloyl-cis-3,5-dimethylpiperazin-1-yl)-6-chloro-1-(4,6-diisopropylpyrimidin-5-yl)-7-(2-fluorophenyl)pyrido[2,3-d]pyrimidin-2(1H)-one]	42	61
C=CC(=O)N1C[C@H](C)N(c2nc(=O)n(-c3c(C(C)C)ncnc3C(C)C)c3nc(-c4c(N)cccc4F)c(F)cc23)C[C@H]1C [Example 12, 4-((2S,5R)-4-Acryloyl-2,5-dimethylpiperazin-1-yl)-7-(2-amino-6-fluorophenyl)-1-(4,6-diisopropylpyrimidin-5-yl)-6-fluoropyrido[2,3-d]pyrimidin-2(1H)-one]	214	88
C=CC(=O)N1C[C@H](C)N(c2nc(=O)n(-c3c(C(C)C)ncnc3C(C)C)c3nc(-c4c(O)cccc4F)c(Cl)cc23)C[C@H]1C [Example 8, 4-((2S,5R)-4-Acryloyl-2,5-dimethylpiperazin-1-yl)-6-chloro-1-(4,6-diisopropylpyrimidin-5-yl)-7-(2-fluoro-6-hydroxyphenyl)pyrido[2,3-d]pyrimidin-2(1H)-one]	30	15
C=CC(=O)N1[C@H](C)CN(c2nc(=O)n(-c3c(C(C)C)ncnc3C(C)C)c3nc(-c4c(N)cccc4F)c(F)cc23)C[C@@H]1C [Example 24, 4-(4-Acryloyl-cis-3,5-dimethylpiperazin-1-yl)-7-(2-amino-6-fluorophenyl)-1-(4,6-diisopropylpyrimidin-5-yl)-6-fluoropyrido[2,3-d]pyrimidin-2(1H)-one]	396	
C=CC(=O)N1[C@H](C)CN(c2nc(=O)n(-c3c(C)ccnc3C(C)C)c3nc(-c4c(N)cccc4F)c(Cl)cc23)C[C@@H]1C (atropisomer, axis not shown; (M)) [Example 15, (M)-4-(4-Acryloyl-cis-3,5-dimethylpiperazin-1-yl)-7-(2-amino-6-fluorophenyl)-6-chloro-1-(2-isopropyl-4-methylpyridin-3-yl)pyrido[2,3-d]pyrimidin-2(1H)-one]		15
C=CC(=O)N1C[C@H](C)N(c2nc(=O)n(-c3c(C(C)C)ncnc3C(C)C)c3nc(-c4c(N)cccc4F)c(Cl)cc23)C[C@H]1C [Example 9, 4-((2S,5R)-4-Acryloyl-2,5-dimethylpiperazin-1-yl)-7-(2-amino-6-fluorophenyl)-6-chloro-1-(4,6-diisopropylpyrimidin-5-yl)pyrido[2,3-d]pyrimidin-2(1H)-one]	54	21
C=CC(=O)N1[C@H](C)CN(c2nc(=O)n(-c3c(C)ccnc3C(C)C)c3nc(-c4c(O)cccc4F)c(Cl)cc23)C[C@@H]1C (atropisomer, axis not shown; (M)) [Example 14, (M)-4-(4-Acryloyl-cis-3,5-dimethylpiperazin-1-yl)-6-chloro-7-(2-fluoro-6-hydroxyphenyl)-1-(2-isopropyl-4-methylpyridin-3-yl)pyrido[2,3-d]pyrimidin-2(1H)-one]	16	35
C=CC(=O)N1[C@H](C)CN(c2nc(=O)n(-c3c(C)ccnc3C(C)C)c3nc(-c4c(N)cccc4F)c(F)cc23)C[C@@H]1C (atropisomer, axis not shown; (M)) [Example 18, (M)-4-(4-Acryloyl-cis-3,5-dimethylpiperazin-1-yl)-7-(2-amino-6-fluorophenyl)-6-fluoro-1-(2-isopropyl-4-methylpyridin-3-yl)pyrido[2,3-d]pyrimidin-2(1H)-one]	69	75
C=CC(=O)N1C[C@H](C)N(c2nc(=O)n(-c3c(C)ccnc3C(C)C)c3nc(-c4ccccc4F)c(Cl)cc23)C[C@H]1C [Example 1, 4-((2S,5R,M)-4-Acryloyl-2,5-dimethylpiperazin-1-yl)-6-chloro-7-(2-fluorophenyl)-1-(2-isopropyl-4-methylpyridin-3-yl)pyrido[2,3-d]pyrimidin-2(1H)-one]	40	26
C=CC(=O)N1C[C@H](C)N(c2nc(=O)n(-c3c(C(C)C)ncnc3C(C)C)c3nc(-c4c(O)cccc4F)c(F)cc23)C[C@H]1C [Example 11, 4-((2S,5R)-4-Acryloyl-2,5-dimethylpiperazin-1-yl)-1-(4,6-diisopropylpyrimidin-5-yl)-6-fluoro-7-(2-fluoro-6-hydroxyphenyl)pyrido[2,3-d]pyrimidin-2(1H)-one]	136	103
C=CC(=O)N1C[C@H](C)N(c2nc(=O)n(-c3c(C)ccnc3C(C)C)c3nc(-c4c(O)cccc4F)c(F)cc23)C[C@H]1C [Example 5, 4-((2S,5R,M)-4-Acryloyl-2,5-dimethylpiperazin-1-yl)-6-fluoro-7-(2-fluoro-6-hydroxyphenyl)-1-(2-isopropyl-4-methylpyridin-3-yl)pyrido[2,3-d]pyrimidin-2(1H)-one]	79	46
C=CC(=O)N1[C@H](C)CN(c2nc(=O)n(-c3c(C)ccnc3C(C)C)c3nc(-c4ccccc4F)c(F)cc23)C[C@@H]1C (atropisomer, axis not shown; (M)) [Example 16, (M)-4-(4-Acryloyl-cis-3,5-dimethylpiperazin-1-yl)-6-fluoro-7-(2-fluorophenyl)-1-(2-isopropyl-4-methylpyridin-3-yl)pyrido[2,3-d]pyrimidin-2(1H)-one]	512	
C=CC(=O)N1[C@H](C)CN(c2nc(=O)n(-c3c(C)ccnc3C(C)C)c3nc(-c4c(O)cccc4F)c(F)cc23)C[C@@H]1C (atropisomer, axis not shown; (M)) [Example 17, (M)-4-(4-Acryloyl-cis-3,5-dimethylpiperazin-1-yl)-6-fluoro-7-(2-fluoro-6-hydroxyphenyl)-1-(2-isopropyl-4-methylpyridin-3-yl)pyrido[2,3-d]pyrimidin-2(1H)-one]	117	105
